Peptide text beside a SMILES is read from it. * marks the point of attachment. Dansyl = CN(C)c1cccc2c(S(=O)(=O)*)cccc12

In this test the test system is P100 membrane fractions derived from Caco-2 cells. Description: Dansylated peptide ELISA on P100: PAX2 and HAX42 peptides relative binding. As for the experimental part: The peptides and proteins were analyzed by a dansylated peptide ELISA method in which 96 well plates were coated overnight at 4° C. with 100 μl/well coating protein (normally 100 μg/ml P100 membrane fraction) in 0.05M carbonate buffer pH9.6. Nonspecific binding was blocked using 200 μl/well, 2% Marvel/PBS for 2 hours at 37° C. prior to incubation with dansylated peptides. The plates were washed three times with PBS/0.05% Tween 20 and after each subsequent incubation step. […] A buffer blank control was included to ensure that background binding to plastic was not due to the antibodies used in the assay system. […] The plates were then incubated with an anti-mouse λ-HRP conjugated antibody (Southern Biotech 1060-05) at a 1:10,000 dilution in blocking solution, 100 μl/well for 1 hour at room temperature. Plates were developed using 75 μl/well Bionostics TMB substrate and incubated for approximately 10 minutes. The developing reaction was stopped using Bionostics Red Stop solution (25 μl/well), and the optical density of the plates was read at 650 nm.
On the technique in general: An ELISA detects its analyte on a solid surface through an enzyme-linked reagent.

Where [1] appears, read: HAX42 peptides, ratio to ZElan021 (arbitrary 1.00), first 50 μg/ml column.
[2] abbreviates: HAX42 peptides, ratio to ZElan021 (arbitrary 1.00), second 50 μg/ml column.
[3] abbreviates: PAX2 peptides, ratio to ZElan021 (HAX42 = 1.00), first 20 μg/ml column.
[4] abbreviates: PAX2 peptides, ratio to ZElan021 (HAX42 = 1.00), first 50 μg/ml column.
The mark [5] stands for this setting: PAX2 peptides, ratio to ZElan021 (HAX42 = 1.00), second 50 μg/ml column.
[6] abbreviates: PAX2 peptides, ratio to ZElan021 (HAX42 = 1.00), second 20 μg/ml column.

Turning to `CC(C)C[C@H](NC(=O)[C@H](CC(N)=O)NC(=O)[C@@H](N)CCCCNS(=O)(=O)c1cccc2c(N(C)C)cccc12)C(=O)N[C@@H](CCCNC(=N)N)C(=O)N[C@@H](CO)C(=O)N[C@@H](CC(=O)O)C(=O)N[C@@H](CC(N)=O)C(=O)N[C@@H](C)C(=O)N[C@@H](CCCCN)C(=O)N[C@@H](CCC(=O)O)C(=O)N1CCC[C@H]1C(=O)NCC(=O)N[C@@H](CC(=O)O)C(=O)N[C@@H](Cc1ccc(O)cc1)C(=O)N[C@@H](CC(N)=O)C(=O)N[C@@H](CS)C(=O)N[C@@H](CS)C(=O)NCC(=O)N[C@@H](CC(N)=O)C(=O)NCC(=O)N[C@@H](CC(N)=O)C(=O)N[C@@H](CO)C(=O)N[C@H](C(=O)NCC(=O)N[C@@H](CCCNC(=N)N)C(=O)N[C@@H](CCCCN)C(=O)N[C@H](C(=O)N[C@@H](Cc1ccccc1)C(=O)N[C@@H](CC(N)=O)C(=O)N[C@@H](CCCNC(=N)N)C(N)=O)C(C)C)[C@@H](C)O` [ZElan071] (H-K(Dansyl)NLRSDNAKEPGDYNCCGNGNSTGRKVFNR-NH2), the “Binding value at 50 μg/ml” value is, setting by setting: under setting [1], 0.89; under setting [2], 0.75.
With `CC(C)C[C@H](NC(=O)[C@H](CCCNC(=N)N)NC(=O)[C@H](CCCNC(=N)N)NC(=O)[C@@H](N)CCCCNS(=O)(=O)c1cccc2c(N(C)C)cccc12)C(=O)N[C@@H](CCCNC(=N)N)C(=O)N[C@H](C(=O)N[C@@H](CCCNC(=N)N)C(N)=O)[C@@H](C)O` [ZElan058, H2N-K(dns)RRLRTR-CONH2] (H-K(Dansyl)RRLRTR-NH2), under setting [3], the “Binding value at 20 μg/ml” value stood at 0.05. Besides, the “Binding value at 50 μg/ml” value is, setting by setting: under setting [4], 0.47; under setting [5], 0.16.
In the case of `C[C@H](NC(=O)[C@H](CC(N)=O)NC(=O)[C@@H](NC(=O)[C@@H](N)CCCCNS(=O)(=O)c1cccc2c(N(C)C)cccc12)[C@@H](C)O)C(=O)N[C@@H](CCCCN)C(=O)N[C@@H](Cc1c[nH]cn1)C(=O)N[C@@H](CO)C(=O)N[C@@H](CO)C(=O)N[C@@H](Cc1c[nH]cn1)C(=O)N[C@@H](CC(N)=O)C(N)=O` [ZElan055] (H-K(Dansyl)TNAKHSSHN-NH2), the “Binding value at 20 μg/ml” value is given as 0.99 under setting [3] and 0.73 under setting [6]. Moreover, the “Binding value at 50 μg/ml” value stood at 1.10 under setting [4] and 0.59 under setting [5].
Regarding `CC(C)C[C@H](NC(=O)[C@H](CCCNC(=N)N)NC(=O)[C@H](CCCNC(=N)N)NC(=O)[C@H](CC(N)=O)NC(=O)[C@H](Cc1c[nH]cn1)NC(=O)[C@H](CO)NC(=O)[C@H](CO)NC(=O)[C@@H](N)CCCCNS(=O)(=O)c1cccc2c(N(C)C)cccc12)C(=O)N[C@@H](CCCNC(=N)N)C(=O)N[C@H](C(=O)N[C@@H](C)C(N)=O)[C@@H](C)O` [ZElan082] (H-K(Dansyl)SSHNRRLRTA-NH2), under setting [3], the “Binding value at 20 μg/ml” value stood at 0.00. The “Binding value at 50 μg/ml” value by setting is: under setting [4], 0.92; under setting [5], 0.40.
For `CC(C)C[C@H](NC(=O)[C@H](CCCNC(=N)N)NC(=O)[C@H](CCCNC(=N)N)NC(=O)[C@@H](N)CCCCNS(=O)(=O)c1cccc2c(N(C)C)cccc12)C(=O)N[C@@H](CCCNC(=N)N)C(=O)N[C@H](C(=O)N[C@@H](CCCNC(=N)N)C(=O)N[C@@H](CO)C(=O)N[C@@H](CCCNC(=N)N)C(N)=O)[C@@H](C)O` [ZElan057] (H-K(Dansyl)RRLRTRSR-NH2), in that order: 0.08, 0.56 and 0.25.
Turning to `CC(C)C[C@H](NC(=O)[C@H](CCCNC(=N)N)NC(=O)[C@H](CCCNC(=N)N)NC(=O)[C@H](CC(N)=O)NC(=O)[C@H](Cc1c[nH]cn1)NC(=O)[C@H](CO)NC(=O)[C@H](CO)NC(=O)[C@@H](N)CCCCNS(=O)(=O)c1cccc2c(N(C)C)cccc12)C(=O)N[C@@H](CCCNC(=N)N)C(=O)N[C@@H](C)C(=O)N[C@@H](CCCNC(=N)N)C(N)=O` [ZElan081] (H-K(Dansyl)SSHNRRLRAR-NH2), the “Binding value at 20 μg/ml” value under setting [3] worked out at 0.01. Moreover, the “Binding value at 50 μg/ml” value runs as follows: under setting [4], 0.89; under setting [5], 0.47.
With `CC[C@H](C)[C@H](NC(=O)[C@H](C)NC(=O)[C@H](CO)NC(=O)[C@@H]1CCCN1C(=O)[C@H](CCCNC(=N)N)NC(=O)[C@H](CCCNC(=N)N)NC(=O)[C@H](CCCNC(=N)N)NC(=O)[C@H](CC(N)=O)NC(=O)[C@H](Cc1ccccc1)NC(=O)[C@@H](NC(=O)[C@H](CCCCN)NC(=O)[C@H](CCCNC(=N)N)NC(=O)CNC(=O)[C@@H](NC(=O)[C@H](CO)NC(=O)[C@H](CC(N)=O)NC(=O)CNC(=O)[C@H](CC(N)=O)NC(=O)CNC(=O)[C@H](CS)NC(=O)[C@H](CS)NC(=O)[C@H](CC(N)=O)NC(=O)[C@H](Cc1ccc(O)cc1)NC(=O)[C@H](CC(=O)O)NC(=O)CNC(=O)[C@@H](N)CCCCNS(=O)(=O)c1cccc2c(N(C)C)cccc12)[C@@H](C)O)C(C)C)C(=O)N1CCC[C@H]1C(=O)N[C@H](C(N)=O)[C@@H](C)O` [ZElan061] (H-K(Dansyl)GDYNCCGNGNSTGRKVFNRRRPSAIPT-NH2), the “Binding value at 20 μg/ml” value (HAX42 peptides, ratio to ZElan021 (arbitrary 1.00)) stood at 0.20. The “Binding value at 50 μg/ml” value by setting is: under setting [1], 0.60; under setting [2], 0.38.
Take `CC(C)C[C@H](NC(=O)[C@H](CCCNC(=N)N)NC(=O)[C@H](CCCNC(=N)N)NC(=O)[C@H](CC(N)=O)NC(=O)[C@H](Cc1c[nH]cn1)NC(=O)[C@H](CO)NC(=O)[C@H](CO)NC(=O)[C@H](Cc1c[nH]cn1)NC(=O)[C@H](CCCCN)NC(=O)[C@H](C)NC(=O)[C@H](CC(N)=O)NC(=O)[C@@H](NC(=O)[C@@H](N)CCCCNS(=O)(=O)c1cccc2c(N(C)C)cccc12)[C@@H](C)O)C(=O)N[C@@H](CCCNC(=N)N)C(=O)N[C@H](C(=O)N[C@@H](CCCNC(=N)N)C(=O)N[C@@H](CO)C(=O)N[C@@H](CCCNC(=N)N)C(=O)N1CCC[C@H]1C(=O)N[C@@H](CC(N)=O)C(N)=O)[C@@H](C)O` [ZElan032] (H-K(Dansyl)TNAKHSSHNRRLRTRSRPN-NH2): the “Binding value at 50 μg/ml” value under setting [4] came out at 0.95.
In the case of `CC(C)C[C@H](NC(=O)[C@H](CCCNC(=N)N)NC(=O)[C@H](CCCNC(=N)N)NC(=O)[C@H](CC(N)=O)NC(=O)[C@H](Cc1c[nH]cn1)NC(=O)[C@H](CO)NC(=O)[C@H](CO)NC(=O)[C@H](Cc1c[nH]cn1)NC(=O)[C@H](CCCCN)NC(=O)[C@H](C)NC(=O)[C@H](CC(N)=O)NC(=O)[C@@H](NC(=O)[C@@H](N)CCCCNS(=O)(=O)c1cccc2c(N(C)C)cccc12)[C@@H](C)O)C(=O)N[C@@H](CCCNC(=N)N)C(=O)N[C@H](C(=O)N[C@@H](CCCNC(=N)N)C(N)=O)[C@@H](C)O` [ZElan033] (H-K(Dansyl)TNAKHSSHNRRLRTR-NH2), under setting [3], the “Binding value at 20 μg/ml” value worked out at 0.35. In addition, the “Binding value at 50 μg/ml” value runs as follows: under setting [4], 0.80; under setting [5], 0.66.
In the case of “H-K(Dansyl)GRNHDVVSSNTHKSYRSPRSASYPRLSNDRTDRTEPAPSS-NH2 [ZElan083]”, the “Binding value at 20 μg/ml” value is 0.43 under setting [3] and 0.63 under setting [6]. Further, the “Binding value at 50 μg/ml” value under setting [5] was 0.88.

Values taken from US7135457B1, “Random peptides that bind to gastro-intestinal tract (GIT) transport receptors and related methods” (Cytogen Corporation, priority 1997, dated 2006).
